Experimental data taken from patent US11642332B2, “(2R,4R)-5-(5′-chloro-2′-fluorobiphenyl-4-yl)-2-hydroxy-4-[(5-methyloxazole-2-carbonyl)amino]pentanoic acid” (THERAVANCE BIOPHARMA R&D IP, LLC, priority 2015, dated 2023).

Experiments:
NEP = target: T1, NEP (Rattus norvegicus, UniProt P07861); test: PK-PD assay for NEP activity in conscious normotensive Sprague-Dawley rats (plasma cGMP after ANP bolus); type: in vivo, male Sprague-Dawley rats; settings: 3 mg/kg oral
T1 construct: Pre-cannulated male Sprague-Dawley rats (3 per compound evaluated) between 8 and 10 weeks of age were obtained from Harlan Laboratories; from tissue; host or cells: whole animal: conscious male Sprague-Dawley rats (Harlan Laboratories)
T1 sequence (P07861 1-750): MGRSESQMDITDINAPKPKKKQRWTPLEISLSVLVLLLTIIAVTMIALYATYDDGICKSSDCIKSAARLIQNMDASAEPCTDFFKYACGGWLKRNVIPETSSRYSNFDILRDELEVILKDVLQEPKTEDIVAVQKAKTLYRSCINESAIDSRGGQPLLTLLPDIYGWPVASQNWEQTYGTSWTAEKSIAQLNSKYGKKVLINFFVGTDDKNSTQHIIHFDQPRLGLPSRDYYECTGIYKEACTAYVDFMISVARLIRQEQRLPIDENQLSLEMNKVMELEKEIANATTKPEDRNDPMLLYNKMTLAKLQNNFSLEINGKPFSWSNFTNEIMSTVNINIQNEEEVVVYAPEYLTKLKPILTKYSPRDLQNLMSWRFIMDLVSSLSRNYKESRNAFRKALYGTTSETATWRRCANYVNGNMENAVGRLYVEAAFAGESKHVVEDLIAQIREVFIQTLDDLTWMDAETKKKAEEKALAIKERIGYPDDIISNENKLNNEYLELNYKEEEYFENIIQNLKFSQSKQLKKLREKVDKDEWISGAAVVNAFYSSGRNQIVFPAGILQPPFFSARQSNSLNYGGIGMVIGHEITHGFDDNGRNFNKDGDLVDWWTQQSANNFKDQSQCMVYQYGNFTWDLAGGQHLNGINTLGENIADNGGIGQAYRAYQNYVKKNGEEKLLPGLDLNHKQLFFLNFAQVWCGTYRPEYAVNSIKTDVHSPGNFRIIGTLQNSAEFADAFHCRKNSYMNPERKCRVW
Procedure: Appropriate masses of each test compound were added into a volume of vehicle (e.g. 5% sodium bicarbonate, 5% dextrose in H2O) such that the final concentration of each compound was appropriate to be dosed at 2 mL/kg. Note that a homogenous suspension was deemed to be acceptable for oral dosing.
Pre-cannulated male Sprague-Dawley rats (3 per compound evaluated) between 8 and 10 weeks of age were obtained from Harlan Laboratories (Indianapolis, Ind.). Rats received a single oral gavage of the dosing solution. The final dose was typically in the range of 3-30 mg/kg. Serial blood samples were harvested via the cannula implanted in the jugular vein at 3 minutes, 15 minutes, 35 minutes, 45 minutes, 1 hour, 2 hours, 4 hours, 6 hours, and 24 hours post-dose. Samples were collected into microtainer tubes containing EDTA as the anticoagulant and were processed to plasma by refrigerated centrifugation. Fifteen minutes prior to the 45 minute, 2 hour, 4 hour, 6 hour, and 24 hour samples, an IV bolus (30 μg/kg) of Atrial Natriuretic Peptide (ANP) was administered. […] Since binding of ANP to its receptor leads to activation of guanylyl cyclase and subsequent production of cyclic guanosine monophosphate (cGMP), the observation of elevated levels of cGMP (>20 nM) in plasma 15 minutes after the IV administration of the ANP bolus was interpreted as evidence of ongoing neprilysin inhibition. Elevated levels plasma cGMP levels 24 hours after dosing is an indicator of the duration pharmacologic effect, analogous to plasma clearance values as indicators of pharmacokinetic persistence.
Plasma samples were extracted with 3 volumes of MeCN containing a suitable internal standard. Extracts were reconstituted into 3 volumes of water containing 1% formic acid. Plasma cGMP and test compound concentrations were quantified in plasma samples by HPLC-coupled mass spectrometric detection.

[1] = Renal excretion of Compound 1 in rat; type: in vivo, male Sprague Dawley rats; settings: IV 0.5 mg/kg
Procedure: An important factor for insuring appropriate long term drug dosing and correct steady-state drug concentrations in patients is drug clearance. In general, decreased drug clearance results in higher drug concentrations and greater drug effects. In order to understand renal clearance of Compound 1, the percent of administered dose recovered in urine following a single IV dose was assessed in three animal species. Three separate studies in male Sprague Dawley rats, male beagle dogs and male cynomolgus monkeys, respectively, were conducted and the procedure and experimental results are described below.
Male Sprague Dawley rats (N=3), having body weights of 0.348 to 0.362 kg, received an IV dose of Compound 1 at 0.5 mg/kg as part of a dosing cassette. Compound 1 was dissolved in 5% NaHCO3 in D5W (5% dextrose in water, pH 7.4) and filtered through a […] polyvinyl difluoride (PVDF) syringe filter prior to administration. The rats had access to food ad libitum before and after administration of Compound 1. Urine samples were collected in metabolic cages and maintained on frozen dry ice during collection. The samples were thawed and the volume of the urine was recorded. An aliquot of the urine sample was transferred to a polypropylene storage tube, frozen and stored (−80° C.) prior to bioanalysis.
Rat urine concentrations of Compound 1 were determined by LC/MS/MS. […]

Cc1cnc(C(=O)N[C@H](Cc2ccc(-c3cc(Cl)ccc3F)cc2)C[C@@H](O)C(=O)O)o1 [Compound 1, (2R,4R)-5-(5′-Chloro-2′-fluorobiphenyl-4-yl)-2-hydroxy-4-[(5-methyloxazole-2-carbonyl)amino]pentanoic Acid]
cGMP Concentration 24 hours After Dosing Mean (NEP; rat plasma, 15 min after IV ANP bolus (30 μg/kg), average of three determinations): 112 nM
potentiation of cGMP 24 hr after dosing compared to Compounds C2, C3 and C4 (NEP; rat): more than 2 fold
Amount of Compound 1 Excreted in Urine over Collection Period (0-24 hrs) Mean [1]: 0.0462 µg
